In the NIST ThermoML archive (doi:10.1016/j.jct.2014.09.001):
± gives the expanded uncertainty stated by the source.

Tests used:
[1] = refractive index (Na D-line) (dimensionless); details: 298.15 K; 101.33 kPa; Liquid; Standard Abbe refractometry
[2] = 298.15 K; 101.33 kPa; Liquid; Vibrating tube method
[3] = excess molar enthalpy (molar enthalpy of mixing); xn = mol fraction of the nth substance listed; details: 298 K, 81.5 kPa, Liquid, Isoperibol calorimetry

## CCCCO [butan-1-ol]
[1]
  refractive index: 1.39734 ± 0.00031
[2]
  mass density: 805.79 ± 1 kg/m3

## CCC(C)O (stereo not drawn) [butan-2-ol]
[1]
  refractive index: 1.39551 ± 0.00037
[2]
  mass density: 802.48 ± 1 kg/m3

## CCO [ethanol]
[1]
  refractive index: 1.35961 ± 0.00031
[2]
  mass density: 784.9 ± 1 kg/m3

## O=[N+]([O-])c1ccccc1 [nitrobenzene]
[1]
  refractive index: 1.55004 ± 0.00037
[2]
  mass density: 1198.12 ± 1.1 kg/m3

## O=[N+]([O-])c1ccccc1 [nitrobenzene] + CC(C)O
[3]; x1 = 0.1038
  excess molar enthalpy: 0.208 ± 0.00263 kcal/mol
[3]; x1 = 0.2065
  excess molar enthalpy: 0.339 ± 0.0043 kcal/mol
[3]; x1 = 0.306
  excess molar enthalpy: 0.42 ± 0.00526 kcal/mol
[3]; x1 = 0.3954
  excess molar enthalpy: 0.466 ± 0.00574 kcal/mol
[3]; x1 = 0.4911
  excess molar enthalpy: 0.488 ± 0.00598 kcal/mol
[3]; x1 = 0.5906
  excess molar enthalpy: 0.485 ± 0.00598 kcal/mol
[3]; x1 = 0.6999
  excess molar enthalpy: 0.451 ± 0.00574 kcal/mol
[3]; x1 = 0.8042
  excess molar enthalpy: 0.381 ± 0.00478 kcal/mol
[3]; x1 = 0.8996
  excess molar enthalpy: 0.264 ± 0.00335 kcal/mol

## O=[N+]([O-])c1ccccc1 [nitrobenzene] + CCC(C)O
[3]; x1 = 0.1035
  excess molar enthalpy: 0.262 ± 0.00335 kcal/mol
[3]; x1 = 0.2049
  excess molar enthalpy: 0.424 ± 0.00526 kcal/mol
[3]; x1 = 0.3065
  excess molar enthalpy: 0.528 ± 0.00669 kcal/mol
[3]; x1 = 0.4088
  excess molar enthalpy: 0.579 ± 0.00717 kcal/mol
[3]; x1 = 0.5111
  excess molar enthalpy: 0.592 ± 0.00741 kcal/mol
[3]; x1 = 0.6117
  excess molar enthalpy: 0.568 ± 0.00693 kcal/mol
[3]; x1 = 0.6988
  excess molar enthalpy: 0.534 ± 0.00669 kcal/mol
[3]; x1 = 0.7988
  excess molar enthalpy: 0.448 ± 0.0055 kcal/mol
[3]; x1 = 0.8981
  excess molar enthalpy: 0.292 ± 0.00382 kcal/mol

## O=[N+]([O-])c1ccccc1 [nitrobenzene] + CCCCO
[3]; x1 = 0.1116
  excess molar enthalpy: 0.184 ± 0.00239 kcal/mol
[3]; x1 = 0.2145
  excess molar enthalpy: 0.31 ± 0.00382 kcal/mol
[3]; x1 = 0.3183
  excess molar enthalpy: 0.398 ± 0.00502 kcal/mol
[3]; x1 = 0.4126
  excess molar enthalpy: 0.448 ± 0.0055 kcal/mol
[3]; x1 = 0.5133
  excess molar enthalpy: 0.464 ± 0.00574 kcal/mol
[3]; x1 = 0.61
  excess molar enthalpy: 0.466 ± 0.00574 kcal/mol
[3]; x1 = 0.6849
  excess molar enthalpy: 0.449 ± 0.0055 kcal/mol
[3]; x1 = 0.7953
  excess molar enthalpy: 0.391 ± 0.00502 kcal/mol
[3]; x1 = 0.8987
  excess molar enthalpy: 0.262 ± 0.00335 kcal/mol

## O=[N+]([O-])c1ccccc1 [nitrobenzene] + CCCO
[3]; x1 = 0.1037
  excess molar enthalpy: 0.169 ± 0.00222 kcal/mol
[3]; x1 = 0.2036
  excess molar enthalpy: 0.288 ± 0.00359 kcal/mol
[3]; x1 = 0.3063
  excess molar enthalpy: 0.364 ± 0.00454 kcal/mol
[3]; x1 = 0.4034
  excess molar enthalpy: 0.409 ± 0.00502 kcal/mol
[3]; x1 = 0.4956
  excess molar enthalpy: 0.432 ± 0.0055 kcal/mol
[3]; x1 = 0.4993
  excess molar enthalpy: 0.432 ± 0.0055 kcal/mol
[3]; x1 = 0.593
  excess molar enthalpy: 0.43 ± 0.00526 kcal/mol
[3]; x1 = 0.6975
  excess molar enthalpy: 0.408 ± 0.00502 kcal/mol
[3]; x1 = 0.7978
  excess molar enthalpy: 0.351 ± 0.0043 kcal/mol
[3]; x1 = 0.9025
  excess molar enthalpy: 0.242 ± 0.00311 kcal/mol

## O=[N+]([O-])c1ccccc1 [nitrobenzene] + CCO
[3]; x1 = 0.0997
  excess molar enthalpy: 0.112 ± 0.00153 kcal/mol
[3]; x1 = 0.1991
  excess molar enthalpy: 0.201 ± 0.00263 kcal/mol
[3]; x1 = 0.2988
  excess molar enthalpy: 0.264 ± 0.00335 kcal/mol
[3]; x1 = 0.4003
  excess molar enthalpy: 0.307 ± 0.00382 kcal/mol
[3]; x1 = 0.4899
  excess molar enthalpy: 0.342 ± 0.0043 kcal/mol
[3]; x1 = 0.5905
  excess molar enthalpy: 0.355 ± 0.00454 kcal/mol
[3]; x1 = 0.6997
  excess molar enthalpy: 0.344 ± 0.0043 kcal/mol
[3]; x1 = 0.7999
  excess molar enthalpy: 0.304 ± 0.00382 kcal/mol
[3]; x1 = 0.8939
  excess molar enthalpy: 0.222 ± 0.00287 kcal/mol

## CCCO [propan-1-ol]
[1]
  refractive index: 1.38361 ± 0.00031
[2]
  mass density: 799.56 ± 1 kg/m3

## CC(C)O [propan-2-ol]
[1]
  refractive index: 1.37518 ± 0.00033
[2]
  mass density: 780.9 ± 1 kg/m3
